Reference: US8129337B2, “Compositions comprising epigallocatechin gallate and protein hydrolysate” (DSM IP Assets B.V., priority 2005, dated 2012)

System: db/db mice
Test: Pathologically changed islets of Langerhans in pancreata of db/db mice after 10 weeks of diet
Assay type: in vivo, mouse
Details: 10 weeks of feeding the diet
Experimental: Diets containing EGCG, or protein hydrolysate, or the combination of EGCG and protein hydrolysate, or placebo were administered to db/db mice (6 weeks old). The db/db mouse model of severe type 2 diabetes mellitus is well established and commonly used to assess the antidiabetic properties of nutritional or pharmaceutical interventions. Furthermore, the animals are characterized by a progressive loss of pancreatic function and pathological changes of pancreatic histology and morphology. The pancreatic damage occurring in db/db mice is the consequence of high blood glucose and lipid levels. After 10 weeks of administration of the respective diets pancreata of all mice were removed and assessed for pathologically changed islets of Langerhans.

Question: Which results are given for `O=C(O[C@@H]1Cc2c(O)cc(O)cc2O[C@@H]1c1cc(O)c(O)c(O)c1)c1cc(O)c(O)c(O)c1` [EGCG, epigallocatechin gallate]?
Answer: Pathological islets (in % of total islets) (db/db mice (6 weeks old at start), n = 9 per group, means ± SEM): 36.5 ± 4.1 % of total islets; Effect on pathologically changed islets of Langerhans compared to placebo (in words) (db/db mice): less pathologically changed islets of Langerhans compared to placebo
